Source: ChEMBL document CHEMBL1136026, “4,4'-Benzophenone-O,O'-disulfamate: a potent inhibitor of steroid sulfatase” (Bioorg Med Chem Lett, 2002)

Molecular target: T1, Steryl-sulfatase (Homo sapiens, UniProt P08842)
T1 sequence (P08842 whole entry): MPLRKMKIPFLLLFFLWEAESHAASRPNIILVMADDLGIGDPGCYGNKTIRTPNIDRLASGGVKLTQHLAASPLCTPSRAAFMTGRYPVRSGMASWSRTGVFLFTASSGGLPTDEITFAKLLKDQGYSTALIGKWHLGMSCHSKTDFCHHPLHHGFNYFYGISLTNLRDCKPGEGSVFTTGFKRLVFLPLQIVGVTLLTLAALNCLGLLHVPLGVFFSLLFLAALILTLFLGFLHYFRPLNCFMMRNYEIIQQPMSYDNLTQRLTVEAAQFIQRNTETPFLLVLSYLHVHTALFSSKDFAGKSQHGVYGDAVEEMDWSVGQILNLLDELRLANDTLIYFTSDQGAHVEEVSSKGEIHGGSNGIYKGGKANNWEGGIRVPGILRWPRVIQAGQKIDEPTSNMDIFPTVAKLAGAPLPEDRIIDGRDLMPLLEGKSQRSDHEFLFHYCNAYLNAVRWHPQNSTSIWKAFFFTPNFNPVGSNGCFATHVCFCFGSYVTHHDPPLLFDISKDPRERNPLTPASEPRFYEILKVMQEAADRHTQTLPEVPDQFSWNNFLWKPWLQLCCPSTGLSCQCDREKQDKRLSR
Assay: Inhibition of human steroid sulfatase compared to EMATE

Question: With `COc1cccc(C(=O)c2ccc(OS(N)(=O)=O)cc2)c1` as the compound, how does the IC50 read?
Answer: 5.2 µM

Question: `COc1ccccc1C(=O)c1ccc(OS(N)(=O)=O)cc1` was tested. Which IC50 did it give?
Answer: 4.8 µM

Question: Which IC50 does the source give for `NS(=O)(=O)Oc1cccc(C(=O)c2cccc(O)c2)c1` here?
Answer: 6.9 µM

Question: With `COc1ccc(C(=O)c2cccc(OS(N)(=O)=O)c2)cc1` as the compound, how does the IC50 read?
Answer: 6.9 µM

Question: `NS(=O)(=O)Oc1ccc(C(=O)c2cccc(OS(N)(=O)=O)c2)cc1` was tested. Which IC50 did it give?
Answer: 0.78 µM

Question: `NS(=O)(=O)Oc1cccc(C(=O)c2ccccc2)c1` was tested. Which IC50 did it give?
Answer: 5.7 µM

Question: Which IC50 does the source give for `NS(=O)(=O)Oc1ccc(C(=O)c2ccc(OS(N)(=O)=O)cc2)cc1` here?
Answer: 0.19 µM

Question: With `COc1cccc(C(=O)c2cccc(OS(N)(=O)=O)c2)c1` as the compound, how does the IC50 read?
Answer: 7.1 µM

Question: With `NS(=O)(=O)Oc1cccc(C(=O)c2ccc(O)cc2)c1` as the compound, how does the IC50 read?
Answer: 5 µM

Question: Which IC50 does the source give for `NS(=O)(=O)Oc1ccc(C(=O)c2ccccc2O)cc1` here?
Answer: 4.6 µM

Question: `NS(=O)(=O)Oc1ccc(C(=O)c2ccccc2)cc1` was tested. Which IC50 did it give?
Answer: 5.1 µM

Question: How did the IC50 turn out when `NS(=O)(=O)Oc1cccc(C(=O)c2cccc(OS(N)(=O)=O)c2)c1` was run?
Answer: 3.2 µM

Question: `C[C@]12CC[C@@H]3c4ccc(OS(N)(=O)=O)cc4CC[C@H]3[C@@H]1CCC2=O` [EMATE] was tested. Which IC50 did it give?
Answer: 0.056 µM
